Earlier results, collected in patent publication US7612060B2, “Triazoles and methods of use” (Amgen Inc., priority 2004, dated 2009).
Where no end group is shown, it is not given here.

Conditions: reported

## RPPGFSPFR [BK, Bradykinin]
  half-life of BK in plasma: approximately 17 seconds
